Results on two compounds are retold here after US20160120825A1 (TIANJIN TAIPU PHARMACEUTICAL SCIENCE & TECHNOLOGY …, priority 2013, published 2016).

Where two headings read alike, the source gives them in different places.

Data set [1] relates to brain nerve cells (hippocampal ventral dentate gyrus). The following applies: adult rat, cited from earlier work.
Data set [2] in a line: change of crystalline X-form raw material in pulverization, grinding, tabletting detected by DSC. Format: physicochemical. The text has this: Change of the crystalline X-form raw material in pulverization, grinding, and tabletting (at a pressure of 10 kg) was detected by DSC (see FIGS. 1-4).
(DSC measures the heat that a sample takes up or gives off during a temperature scan.)

Data set [3] is described as follows: solubility of crystalline X-form agomelatine in solvents. Format: physicochemical.
Data set [4] in a line: stability in the process (DSC crystal form purity, HPLC relevant substances). The format is physicochemical. The following applies: during formulation process. The text has this:
(§1) Referring to the aforementioned test 6, tablets were manufactured according to formulation and process with hydroxyproplyl methyl cellulose and polyvinylpyrrolindone k30 in a concentration of 15% as a protective agent.
Crystal form purity of the tablets was detected using DSC method with crystal forms and relevant substances as evaluation indexes. Regarding detection of relevant substances, HPLC method was adopted using imported drug as a standard.

Data set [5] in a line: test on influencing factors. The format is physicochemical. The procedure: as §1
We investigated in combination with formulations of the present invention: the samples were allowed to stand in an open state for 30 days under the conditions of a high temperature of 60° C., a high humidity of RH 92%, and both high temperature and high humidity (40° C., RH75%), respectively. The results are as follows: Test results on influencing factors (%)

Take `COc1ccc2cccc(CCNC(C)=O)c2c1` [Agomelatine, agomelatine]: the “cell proliferation and neuronal regeneration in hippocampal ventral dentate gyrus” value in data set [1] (acute or subacute administration (4 hours or nine weeks)) was “no similar situation occurred”; in data set [1] (long-term (three weeks) administration), “could increase cell proliferation and neuronal regeneration”.

Regarding `COc1ccc2cccc(CCNC(C)=O)c2c1` [agomelatine], the “X-form crystal purity (%) detected by DSC” value in data set [2] (after grinding) came out at 75.1%; in data set [2] (after pulverization), 79.4%; in data set [2] (after tabletting (pressure of 10 kg)), 57.7%; in data set [2] (untreated crystalline X-form) it was 100%. For the same compound, the solubility result in data set [3] (in methanol, ethanol, acetonitrile, DMSO, etc.) is given as “very soluble”; in data set [3] (in water) it was “almost insoluble”. Further, in data set [4] (DSC), the Crystal form purity is 100. This compound registered a Relevant substances in data set [4] (HPLC) of 0.42%. For the same compound, the “Crystal form purity %” value in data set [5] (0 day) is 100%; in data set [5] (10 days at a high humidity (RH 92%), open state), 85%; in data set [5] (10 days at a high temperature (60° C.), open state) it was 68%; in data set [5] (10 days at both high temperature and high humidity (40° C., RH75%), open state), 57%.
